Several values for one entry are separate records, joined by “and”; a condition that tells them apart may be missing. Equal entries are not always repeated.
Molecular target: D(2) dopamine receptor (Rattus norvegicus, UniProt P61169)
Sequence (P61169 whole entry): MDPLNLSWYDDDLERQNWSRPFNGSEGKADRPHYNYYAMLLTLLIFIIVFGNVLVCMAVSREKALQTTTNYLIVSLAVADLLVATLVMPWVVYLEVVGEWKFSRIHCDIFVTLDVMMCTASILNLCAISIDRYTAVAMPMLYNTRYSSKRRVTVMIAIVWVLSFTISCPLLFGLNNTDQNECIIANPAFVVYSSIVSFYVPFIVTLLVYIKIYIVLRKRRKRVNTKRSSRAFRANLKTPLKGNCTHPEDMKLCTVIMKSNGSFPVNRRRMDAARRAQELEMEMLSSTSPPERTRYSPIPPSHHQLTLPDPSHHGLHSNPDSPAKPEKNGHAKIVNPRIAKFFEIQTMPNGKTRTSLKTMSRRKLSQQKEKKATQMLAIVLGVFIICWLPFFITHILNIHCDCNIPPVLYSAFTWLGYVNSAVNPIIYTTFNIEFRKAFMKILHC

Cc1cccc(N2CCN(CCCOc3ccc4ccc(=O)[nH]c4c3)CC2)c1C [NSC_163839]
Ki: 19.8 nM and 18 nM and 9.8 nM
